# Measured values reported in patent publication US20100160454A1, “ANTIMICROBIAL AGENTS, COMPOSITIONS AND PRODUCTS CONTAINING THE SAME, AND METHODS OF USING THE COMPOSITIONS AND PRODUCTS” (Eastman Chemical Company, priority 2008, published 2010).
# How the values were obtained:
# Test in all cases: Microbiological challenge testing in BPW broth, graded subculture counts
# Type in all cases: cell-based
# [1] = tested on: Staphylococcus aureus ATCC 25923; conditions: S. aureus
# Procedure: (§1) The microorganisms in the table below were used in challenge tests. They were either ATCC (American Type Culture Collection) or “wild type” as indicated. Wild type organisms were problematic organisms previously isolated from chemical products.
# (§2) All of the microorganisms were grown in Tryptose Soy Broth (TSB), DIFCO™ available from Becton, Dickinson and Company, containing 1% dextrose. Candida albicans and Aspergillus niger, were incubated at 22° C.+/−2° C. for at least 96 hours. All bacteria were incubated at 35° C.+/−2° C. in a humidified incubator for at least 96 hours.
# (§3) The following procedure was followed to determine the amount of each challenge material (inoculum broth) needed to produce a 10^8 CFU/mL challenge, which is equivalent to a final test-sample microbial concentration of 10^5 to 10^6 CFU/mL (CFU=colony forming units).
# (§4) Using a sterile pipette, 1 mL of the growth from each TSB culture was transferred into tubes of 9 mL buffered water (pH 7.2 phosphate buffer) and mixed thoroughly. This was repeated to make serial 1:10 dilutions. Then, 0.1 mL of each sample and dilution was inoculated onto agar plates to produce the equivalent of a further 1:10 dilution. (C. albicans and A. niger were inoculated onto SABD and bacteria were inoculated onto Plate Count Agar (PCA), DIFCO™ available from Becton, Dickinson and Company.) (The normal volume plated for most samples was 0.1 mL. Some samples that could be very low in micro-organisms (high dilutions) were plated using 0.5 mL of inoculum, in order to produce reproducible counts.) The samples were distributed on the plates using the spread-plate technique. The spread-plate technique is carried out by spreading the sample over the entire plate surface using a sterile spreading rod while rotating the plate with a rotary auto-plater. After the inoculum was absorbed completely by the agar, each plate was inverted and incubated (fungi at 22° C.+/−2° C. and bacteria at 35° C.+/−2° C.).
# (§5) After incubation for at least 48 hours, colonies that had developed on the agar plates were counted (CFU) and recorded with the corresponding dilution. If counting had to be delayed temporarily, plates were refrigerated, preferably no more than 24 hours, until they could be counted. The number of CFU/mL was determined by multiplying the plate count by the dilution factor of the plate counted.
# (§6) Turbidity in Nepholemetric Turbidity Units (NTU) was measured for each serial dilution using the HF-Micro 100 Model Turbidimeter. For each microorganism, the plate counts were compared to the turbidity readings.
# (§7) Control substrates (“broth alone”) were prepared for each microorganism separately in triplicate by adding 13.5 mL of Buffered Peptone Water broth (BPW) containing 1% dextrose to each 20-mL glass tube, then adding 1.5 mL challenge material to produce a final concentration at time zero of 10^5 to 10^6 CFU/mL and a total volume of 15 mL.
# (§8) Test sample substrates were prepared containing each test material listed below at the concentrations shown for challenge testing with each microorganism separately. Sample substrates were prepared in triplicate, except the substrates containing butoxyethanol which were prepared in duplicate. Substrates were prepared by adding BPW containing 1% dextrose to each 20-mL glass tube, then adding the test material in the amount appropriate to achieve the desired weight/volume percent and to achieve a total volume of BPW plus dextrose plus test material of 13.5 mL. Then 1.5 mL challenge material was added to produce a final concentration at time zero of 10^5 to 10^6 CFU/mL and a total test sample substrate volume of 15 mL.
# [2] = tested on: Aeromonas sp. Wild type
# Procedure: as §1, §2, §3, §4, §5, §6, §7, §8
# [3] = tested on: Burkholderia cepacia Wild type; conditions: B. cepacia
# Procedure: as §1, §2, §3, §4, §5, §6, §7, §8
# [4] = tested on: Escherichia coli ATCC 25922; conditions: E. Coli
# Procedure: as §1, §2, §3, §4, §5, §6, §7, §8
structure (smiles),measurement,setting,value
"OCC1CCCC(CO)C1 (stereo not drawn) [1,3-CHDM, 1,3-cyclohexanedimethanol]",Grade,"[1]; 0.5% (wt/vol), 3 day","5 (More than 10,000 colonies estimated (thus more than 100,000 CFU/mL))"
same,Grade,"[1]; 0.5% (wt/vol), 14 day","5 (More than 10,000 colonies estimated (thus more than 100,000 CFU/mL))"
same,Grade,"[1]; 0.5% (wt/vol), 30 day","5 (More than 10,000 colonies estimated (thus more than 100,000 CFU/mL))"
same,Grade,"[1]; 1.25% (wt/vol), 3 day","4 (1000 to 10,000 colonies countable (thus 10,000 CFU/mL to 100,000 CFU/mL))"
same,Grade,"[1]; 1.25% (wt/vol), 14 day","4 (1000 to 10,000 colonies countable (thus 10,000 CFU/mL to 100,000 CFU/mL))"
same,Grade,"[1]; 1.25% (wt/vol), 30 day","4 (1000 to 10,000 colonies countable (thus 10,000 CFU/mL to 100,000 CFU/mL))"
same,Grade,"[1]; 2.5% (wt/vol), 3 day","4 (1000 to 10,000 colonies countable (thus 10,000 CFU/mL to 100,000 CFU/mL))"
same,Grade,"[1]; 2.5% (wt/vol), 14 day","4 (1000 to 10,000 colonies countable (thus 10,000 CFU/mL to 100,000 CFU/mL))"
same,Grade,"[1]; 2.5% (wt/vol), 30 day","4 (1000 to 10,000 colonies countable (thus 10,000 CFU/mL to 100,000 CFU/mL))"
same,Grade,"[1]; 5.0% (wt/vol), 3 day","4 (1000 to 10,000 colonies countable (thus 10,000 CFU/mL to 100,000 CFU/mL))"
same,Grade,"[1]; 5.0% (wt/vol), 14 day","3 (100 to 1000 colonies (thus 1000 to 10,000 CFU/mL))"
same,Grade,"[1]; 5.0% (wt/vol), 30 day","4 (1000 to 10,000 colonies countable (thus 10,000 CFU/mL to 100,000 CFU/mL))"
same,"Aeromonas sp growth grade, 3 day",[2]; 0.5% weight/volume,"5 (More than 10,000 colonies estimated (thus more than 100,000 CFU/mL))"
same,"Aeromonas sp growth grade, 14 day",[2]; 0.5% weight/volume,"4 (1000 to 10,000 colonies countable (thus 10,000 CFU/mL to 100,000 CFU/mL))"
same,"Aeromonas sp growth grade, 30 day",[2]; 0.5% weight/volume,"4 (1000 to 10,000 colonies countable (thus 10,000 CFU/mL to 100,000 CFU/mL))"
same,"Aeromonas sp growth grade, 3 day",[2]; 1.25% weight/volume,"4 (1000 to 10,000 colonies countable (thus 10,000 CFU/mL to 100,000 CFU/mL))"
same,"Aeromonas sp growth grade, 14 day",[2]; 1.25% weight/volume,"4 (1000 to 10,000 colonies countable (thus 10,000 CFU/mL to 100,000 CFU/mL))"
same,"Aeromonas sp growth grade, 30 day",[2]; 1.25% weight/volume,"4 (1000 to 10,000 colonies countable (thus 10,000 CFU/mL to 100,000 CFU/mL))"
same,"Aeromonas sp growth grade, 3 day",[2]; 2.5% weight/volume,"4 (1000 to 10,000 colonies countable (thus 10,000 CFU/mL to 100,000 CFU/mL))"
same,"Aeromonas sp growth grade, 14 day",[2]; 2.5% weight/volume,"4 (1000 to 10,000 colonies countable (thus 10,000 CFU/mL to 100,000 CFU/mL))"
same,"Aeromonas sp growth grade, 30 day",[2]; 2.5% weight/volume,"4 (1000 to 10,000 colonies countable (thus 10,000 CFU/mL to 100,000 CFU/mL))"
same,"Aeromonas sp growth grade, 3 day",[2]; 5.0% weight/volume,"4 (1000 to 10,000 colonies countable (thus 10,000 CFU/mL to 100,000 CFU/mL))"
same,"Aeromonas sp growth grade, 14 day",[2]; 5.0% weight/volume,"4 (1000 to 10,000 colonies countable (thus 10,000 CFU/mL to 100,000 CFU/mL))"
same,"Aeromonas sp growth grade, 30 day",[2]; 5.0% weight/volume,"4 (1000 to 10,000 colonies countable (thus 10,000 CFU/mL to 100,000 CFU/mL))"
same,Grade,"[3]; 0.5% (wt/vol), 3 day","5 (More than 10,000 colonies estimated (thus more than 100,000 CFU/mL))"
same,Grade,"[3]; 0.5% (wt/vol), 14 day","5 (More than 10,000 colonies estimated (thus more than 100,000 CFU/mL))"
same,Grade,"[3]; 0.5% (wt/vol), 30 day","5 (More than 10,000 colonies estimated (thus more than 100,000 CFU/mL))"
same,Grade,"[3]; 1.25% (wt/vol), 3 day",4.7
same,Grade,"[3]; 1.25% (wt/vol), 14 day",4.7
same,Grade,"[3]; 1.25% (wt/vol), 30 day",4.7
same,Grade,"[3]; 2.5% (wt/vol), 3 day","4 (1000 to 10,000 colonies countable (thus 10,000 CFU/mL to 100,000 CFU/mL))"
same,Grade,"[3]; 2.5% (wt/vol), 14 day","4 (1000 to 10,000 colonies countable (thus 10,000 CFU/mL to 100,000 CFU/mL))"
same,Grade,"[3]; 2.5% (wt/vol), 30 day","4 (1000 to 10,000 colonies countable (thus 10,000 CFU/mL to 100,000 CFU/mL))"
same,Grade,"[3]; 5.0% (wt/vol), 3 day","3 (100 to 1000 colonies (thus 1000 to 10,000 CFU/mL))"
same,Grade,"[3]; 5.0% (wt/vol), 14 day",1 (0 to 51 colonies counted (thus 10 to 510 CFU/mL based on 0.1-mL sample))
same,Grade,"[3]; 5.0% (wt/vol), 30 day",3.3
same,Grade,"[4]; 0.5% (wt/vol), 3 day","5 (More than 10,000 colonies estimated (thus more than 100,000 CFU/mL))"
same,Grade,"[4]; 0.5% (wt/vol), 14 day","5 (More than 10,000 colonies estimated (thus more than 100,000 CFU/mL))"
same,Grade,"[4]; 0.5% (wt/vol), 30 day","5 (More than 10,000 colonies estimated (thus more than 100,000 CFU/mL))"
same,Grade,"[4]; 1.25% (wt/vol), 3 day","5 (More than 10,000 colonies estimated (thus more than 100,000 CFU/mL))"
same,Grade,"[4]; 1.25% (wt/vol), 14 day","4 (1000 to 10,000 colonies countable (thus 10,000 CFU/mL to 100,000 CFU/mL))"
same,Grade,"[4]; 1.25% (wt/vol), 30 day","4 (1000 to 10,000 colonies countable (thus 10,000 CFU/mL to 100,000 CFU/mL))"
